Ends that are not written are not given here. * marks the point of attachment. pNA = O=[N+]([O-])c1ccc(N*)cc1
T1: activated protease C-E-6XHIS (Homo sapiens, UniProt Q9GZN4)
T1 construct: made in house; host or cells: Sf9 insect cells (baculovirus, pFastBac1)
T1 sequence (Q9GZN4 with tags, fused parts or gaps): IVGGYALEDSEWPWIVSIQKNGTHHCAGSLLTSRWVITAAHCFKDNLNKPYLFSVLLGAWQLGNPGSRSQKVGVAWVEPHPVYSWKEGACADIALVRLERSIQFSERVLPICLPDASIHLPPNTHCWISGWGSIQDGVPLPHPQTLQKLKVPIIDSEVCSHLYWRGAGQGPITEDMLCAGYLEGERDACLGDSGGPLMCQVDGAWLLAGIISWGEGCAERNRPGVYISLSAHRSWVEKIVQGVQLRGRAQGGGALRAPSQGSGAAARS

B1: PFEK-protease C-E-6XHIS zymogen: secreted recombinant zymogen of human serine protease C-E catalytic domain with FLAG, enterokinase site and 6XHIS tag, from Sf9 cells (protein)
chain: MDSKGSSQKSRLLLLLVVSNLLLCQGVVSDYKDDDDVDAAALAAPFDDDDKIVGGYALEDSEWPWIVSIQKNGTHHCAGSLLTSRWVITAAHCFKDNLNKPYLFSVLLGAWQLGNPGSRSQKVGVAWVEPHPVYSWKEGACADIALVRLERSIQFSERVLPICLPDASIHLPPNTHCWISGWGSIQDGVPLPHPQTLQKLKVPIIDSEVCSHLYWRGAGQGPITEDMLCAGYLEGERDACLGDSGGPLMCQVDGAWLLAGIISWGEGCAERNRPGVYISLSAHRSWVEKIVQGVQLRGRAQGGGALRAPSQGSGAAARSSRHHHHHH

Columns and labels:
[1] = target: T1, activated protease C-E-6XHIS; assay: Chromogenic amidolytic activity assay, release of para-nitroaniline (pNA) from synthetic substrates; type: biochemical; details: recombinant activated protease C-E-6XHIS; substrate 500 uM; 10 mM Tris-HCl pH 7.8, 25 mM NaCl, 25 mM imidazole; 37° C., 90 minutes; 405 nm; N.A. = No Activity
Method: Eluted protein concentration was determined by a Micro BCA Kit (Pierce, Rockford, Ill.) using bovine serum albumin as a standard. Amidolytic activities of the activated protease C-E-6XHIS was monitored by release of para-nitroaniline (pNA) from the synthetic substrates indicated in Table 1. The chromogenic substrates used in these studies were all commercially available (Bachem California Inc., Torrance, Pa.; American Diagnostica Inc., Greenwich, Conn.; Kabi Pharmacia Hepar Inc., Franklin, Ohio). Assay mixtures contained chromogenic substrates at 500 uM and 10 mM Tris-HCl (pH 7.8), 25 mM NaCl, and 25 mM imidazole. Release of pNA was measured over 90 minutes at 37° C. on a micro-plate reader (Molecular Devices, Menlo Park, Calif.) with a 405 mn absorbance filter. The initial reaction rates (Vmax, mOD/min) were determined from plots of absorbance versus time using Softmax (Molecular Devices, Menlo Park, Calif.). The specific activities (nmole pNA produced/min/μg protein) of the activated protease C-E-6XHIS for the various substrates are presented in Table 1.
Amidolytic activities of the activated serine proteases are monitored by release of para-nitroaniline (pNA) from synthetic substrates that are commercially available (Bachem California Inc., Torrance, Pa.; American Diagnostica Inc., Greenwich, Conn.; Kabi Pharmacia Hepar Inc., Franklin, Ohio). Assay mixtures contain chromogenic substrates in 500 uM and 10 mM TRIS-HCl (pH 7.8), 25 mM NaCl, and 25 mM imidazole. Release of pNA is measured over 120 min at 37° C. on a micro-plate reader (Molecular Devices, Menlo Park, Calif.) with a 405 nm absorbance filter. The initial reaction rates (Vmax, mOD/min) are determined from plots of absorbance versus time using Softmax (Molecular Devices, Menlo Park, Calif.). […] Although in the present case chromogenic activity is monitored by an increase in absorbance, fluorogenic assays or other methods such as FRET to measure proteolytic activity as mentioned above, can be employed. […]

[2] = Chromogenic amidolytic activity of the purified unactivated zymogen; type: biochemical, human; details: not cleaved with enterokinase, same chromogenic substrates

Molecule | Specific Activity [1] | chromogenic amidolytic activity [2]
Phe-Arg-pNA | 0.058 ± 0.006 nmole pNA produced/min/μg protein | 
H—D—Pro—HHT—Arg—pNA | 0.008 ± 0.001 nmole pNA produced/min/μg protein | 
H—D—Lys(CBO)—Pro—Arg—pNA | 0.002 ± 0.000 nmole pNA produced/min/μg protein | 
B1 |  | No measurable chromogenic amidolytic activity

Source: patent publication US6849421B2, “Assays for compounds modulating human serine protease C-E” (Ortho-McNeil Pharmaceutical, Inc., priority 1999, dated 2005)
